One assay deals with T-cell. Description: inhibitors of CD8+ T cell–vesicle binding, dose response, mouse 2C CD8+ T cells, flow cytometry (AID 485284). Format: functional.
The target in assay [1] is Type-1 angiotensin II receptor (Homo sapiens, UniProt P30556). The experiment in a line: AT1 receptor agonists, dose response, selectivity assay for APJ receptor agonist project, cell-based, uHTS hits (AID 488865).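 Further: beta-arrestin recruitment to AT1 measured by enzyme fragment complementation luminescence.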 Type of assay: functional.
Chain of Type-1 angiotensin II receptor (P30556 whole entry, the tested form may be a part): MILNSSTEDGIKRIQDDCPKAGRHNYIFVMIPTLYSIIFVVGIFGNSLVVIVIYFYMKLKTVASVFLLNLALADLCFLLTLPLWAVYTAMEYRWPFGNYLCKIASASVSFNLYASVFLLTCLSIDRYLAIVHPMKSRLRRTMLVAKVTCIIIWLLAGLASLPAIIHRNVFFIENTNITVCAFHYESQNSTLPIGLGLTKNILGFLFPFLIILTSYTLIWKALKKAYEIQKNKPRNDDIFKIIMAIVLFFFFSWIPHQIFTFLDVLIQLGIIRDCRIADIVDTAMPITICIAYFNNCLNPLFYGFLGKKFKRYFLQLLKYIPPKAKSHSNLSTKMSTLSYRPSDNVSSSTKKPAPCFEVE
Another assay has as its target T1, Coagulation factor XII (Homo sapiens, UniProt P00748).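 Further: activated factor XIIa alpha cleaving a fluorogenic AMC peptide substrate; inhibitor potency from loss of enzyme activity.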
T1 sequence (P00748 whole entry): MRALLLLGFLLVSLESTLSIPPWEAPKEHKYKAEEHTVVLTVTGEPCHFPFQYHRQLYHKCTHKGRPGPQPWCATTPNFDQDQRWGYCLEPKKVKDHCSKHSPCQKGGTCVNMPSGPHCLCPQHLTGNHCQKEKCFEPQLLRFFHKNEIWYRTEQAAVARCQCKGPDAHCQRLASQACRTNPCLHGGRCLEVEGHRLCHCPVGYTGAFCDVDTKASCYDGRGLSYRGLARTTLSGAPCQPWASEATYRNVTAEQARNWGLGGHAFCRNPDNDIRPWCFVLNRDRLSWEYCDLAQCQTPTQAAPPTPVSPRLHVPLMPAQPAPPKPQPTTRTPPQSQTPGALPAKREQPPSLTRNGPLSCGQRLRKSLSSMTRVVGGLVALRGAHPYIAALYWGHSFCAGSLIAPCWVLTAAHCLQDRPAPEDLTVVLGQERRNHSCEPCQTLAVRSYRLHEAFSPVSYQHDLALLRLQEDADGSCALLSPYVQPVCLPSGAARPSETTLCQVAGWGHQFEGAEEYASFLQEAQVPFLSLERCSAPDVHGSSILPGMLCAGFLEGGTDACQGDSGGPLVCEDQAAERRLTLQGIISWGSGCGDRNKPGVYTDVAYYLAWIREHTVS
Format: functional.

The nature of assay [2]: cytotoxicity in HPDE-C7 cells, cell-based, fluorescence, HTS (AID 430). Format: functional. Particulars: Homo sapiens.
The nature of assay [3]: cytotoxicity in KRAS-transformed pancreatic duct cells, primary screen, cell-based, fluorescence, HTS (AID 431).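 Further: cell line used: HPDE-C7K.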 Type of assay: functional. Particulars: Homo sapiens.
Assay [4] addresses T2, Short transient receptor potential channel 4 (Mus musculus, UniProt Q9QUQ5).
T2 sequence (Q9QUQ5 whole entry): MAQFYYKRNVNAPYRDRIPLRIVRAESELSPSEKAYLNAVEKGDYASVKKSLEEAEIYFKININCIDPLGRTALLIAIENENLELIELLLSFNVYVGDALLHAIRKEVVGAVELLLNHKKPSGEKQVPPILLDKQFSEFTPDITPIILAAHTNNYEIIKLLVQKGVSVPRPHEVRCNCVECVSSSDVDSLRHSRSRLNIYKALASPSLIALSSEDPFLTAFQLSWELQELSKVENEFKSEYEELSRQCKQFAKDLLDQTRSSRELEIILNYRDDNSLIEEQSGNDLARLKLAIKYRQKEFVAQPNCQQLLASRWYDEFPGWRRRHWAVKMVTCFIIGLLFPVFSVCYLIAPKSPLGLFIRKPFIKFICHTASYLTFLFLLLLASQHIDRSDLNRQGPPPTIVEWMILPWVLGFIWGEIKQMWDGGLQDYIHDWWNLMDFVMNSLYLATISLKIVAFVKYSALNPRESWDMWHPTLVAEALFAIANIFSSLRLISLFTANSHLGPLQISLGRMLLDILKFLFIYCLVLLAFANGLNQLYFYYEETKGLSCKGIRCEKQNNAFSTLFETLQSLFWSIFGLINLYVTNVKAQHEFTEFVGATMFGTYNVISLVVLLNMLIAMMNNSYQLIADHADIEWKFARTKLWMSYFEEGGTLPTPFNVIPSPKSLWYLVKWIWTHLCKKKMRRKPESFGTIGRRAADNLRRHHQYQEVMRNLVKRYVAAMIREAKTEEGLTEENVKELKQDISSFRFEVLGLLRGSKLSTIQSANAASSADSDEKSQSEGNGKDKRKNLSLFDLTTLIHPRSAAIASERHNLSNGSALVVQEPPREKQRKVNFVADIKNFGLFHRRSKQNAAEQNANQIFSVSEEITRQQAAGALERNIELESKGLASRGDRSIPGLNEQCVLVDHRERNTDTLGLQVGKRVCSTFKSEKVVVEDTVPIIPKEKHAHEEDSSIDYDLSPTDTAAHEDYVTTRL
Description: TRPC4 positive allosteric modulators, dose response, cell-based, HEK293 TRPC4/mu-opioid, Fluo-4 calcium, EC20 DAMGO (AID 434941).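 Further: HEK293 cells coexpressing TRPC4 and mu opioid receptor stimulated by EC20 DAMGO.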 Format: functional.

For assay [5], the target named is T2, Short transient receptor potential channel 4. The experiment in a line: mouse TRPC4 channel activators, dose response, cell-based, HEK293 TRPC4/mu-opioid, Fluo-4 calcium (AID 434937). Type of assay: functional.
The target of assay [6] is T3, Heat shock factor protein 1 (Mus musculus, UniProt P38532).
T3 sequence (P38532 whole entry): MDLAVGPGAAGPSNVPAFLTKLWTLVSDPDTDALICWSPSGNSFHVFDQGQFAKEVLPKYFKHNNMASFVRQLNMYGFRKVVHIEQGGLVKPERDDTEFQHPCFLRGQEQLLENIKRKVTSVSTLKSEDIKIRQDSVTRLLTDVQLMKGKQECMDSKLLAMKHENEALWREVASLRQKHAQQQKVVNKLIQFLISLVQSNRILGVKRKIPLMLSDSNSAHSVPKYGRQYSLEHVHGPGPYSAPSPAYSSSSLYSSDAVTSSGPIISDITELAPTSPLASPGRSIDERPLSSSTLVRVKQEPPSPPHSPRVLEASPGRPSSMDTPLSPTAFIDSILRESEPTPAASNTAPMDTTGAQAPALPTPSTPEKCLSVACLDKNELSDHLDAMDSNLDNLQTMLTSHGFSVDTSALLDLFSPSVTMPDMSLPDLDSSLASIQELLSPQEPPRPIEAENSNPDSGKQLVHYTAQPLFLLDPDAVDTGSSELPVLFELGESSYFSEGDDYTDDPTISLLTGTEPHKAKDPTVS
The experiment in a line: HSF1 potentiators in luciferase reporter cells, confirmation, cell-based, NIH3T3, luminescence, dose retest (AID 435004).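 Further: stress induced by proteasome inhibitor MG132 added 30 min after compound; luciferase reporter driven by HSF1 response element in NIH3T3 cells; actives raise luminescence as potentiators of the MG132 stress response.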 Format: functional. On the technique in general: Reporter assays use an easily measured gene product as a stand-in for the process of interest.

For assay [7], the target named is T4, High affinity choline transporter 1 (Homo sapiens, UniProt Q9GZV3).
T4 sequence (Q9GZV3 whole entry): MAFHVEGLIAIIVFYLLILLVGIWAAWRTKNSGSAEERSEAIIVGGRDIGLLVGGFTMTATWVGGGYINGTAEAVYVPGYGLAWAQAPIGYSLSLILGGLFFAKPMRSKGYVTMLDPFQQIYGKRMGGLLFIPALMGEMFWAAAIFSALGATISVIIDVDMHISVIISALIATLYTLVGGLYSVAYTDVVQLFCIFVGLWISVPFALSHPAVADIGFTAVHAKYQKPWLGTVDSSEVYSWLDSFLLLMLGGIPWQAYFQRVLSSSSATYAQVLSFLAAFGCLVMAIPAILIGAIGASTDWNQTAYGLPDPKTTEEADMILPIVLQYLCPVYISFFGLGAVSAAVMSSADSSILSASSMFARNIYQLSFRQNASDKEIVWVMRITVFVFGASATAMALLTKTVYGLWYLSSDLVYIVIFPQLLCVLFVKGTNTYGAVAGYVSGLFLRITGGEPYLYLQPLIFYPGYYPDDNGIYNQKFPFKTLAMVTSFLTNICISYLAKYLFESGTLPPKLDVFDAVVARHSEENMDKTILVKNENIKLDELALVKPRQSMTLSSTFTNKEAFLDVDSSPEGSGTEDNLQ
Description: CHT inhibitors, dose response, cell-based, 5-point CRC, membrane potential dye (AID 504840). Type of assay: functional.

The next assay addresses Hexokinase (Trypanosoma brucei, UniProt Q38C41). Description: Confirmation assay for inhibitors of Trypanosoma brucei hexokinase 1-Analogue-first series. [Related pubchem assays (depositor defined):AID1430, AID1632, AID2516, AID2560, AID2579, AID2600, AID449725, AID492951]. Type of assay: functional.
Assay [8] concerns the target T5, Tyrosine-protein phosphatase non-receptor type 7 (Homo sapiens, UniProt P35236).
T5 sequence (P35236 whole entry): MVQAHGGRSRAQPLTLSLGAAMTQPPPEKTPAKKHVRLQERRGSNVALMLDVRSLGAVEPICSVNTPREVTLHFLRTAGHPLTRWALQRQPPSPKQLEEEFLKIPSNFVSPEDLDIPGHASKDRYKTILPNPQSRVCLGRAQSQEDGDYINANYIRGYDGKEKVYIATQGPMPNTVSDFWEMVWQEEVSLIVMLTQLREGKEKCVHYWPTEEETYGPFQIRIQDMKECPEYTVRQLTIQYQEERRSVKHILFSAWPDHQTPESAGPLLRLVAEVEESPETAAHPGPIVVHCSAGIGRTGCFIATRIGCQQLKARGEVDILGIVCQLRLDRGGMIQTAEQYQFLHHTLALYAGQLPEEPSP
Description: SAR analysis of chemical inhibitors of HePTP using a Fluorescent assay - Set 2. [Related pubchem assays (depositor defined):AID1059, AID1077, AID1661, AID2085, AID521]. Format: functional.

In assay [9] the target is Dual specificity protein phosphatase 3 (Homo sapiens, UniProt P51452). The experiment in a line: SAR VHR1 Fluorescent Assay for In Vitro dose response studies Set 2. [Related pubchem assays (depositor defined):AID1654, AID1661, AID1878]. Type of assay: functional.
Chain of Dual specificity protein phosphatase 3 (P51452 whole entry): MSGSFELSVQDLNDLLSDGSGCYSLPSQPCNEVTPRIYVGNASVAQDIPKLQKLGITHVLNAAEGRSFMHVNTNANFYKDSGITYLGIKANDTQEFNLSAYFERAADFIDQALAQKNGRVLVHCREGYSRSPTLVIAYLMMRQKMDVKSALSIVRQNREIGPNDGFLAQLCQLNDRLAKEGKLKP
Assay [10] concerns the target T6, Sphingosine 1-phosphate receptor 4 (Homo sapiens, UniProt O95977).
T6 sequence (O95977 whole entry): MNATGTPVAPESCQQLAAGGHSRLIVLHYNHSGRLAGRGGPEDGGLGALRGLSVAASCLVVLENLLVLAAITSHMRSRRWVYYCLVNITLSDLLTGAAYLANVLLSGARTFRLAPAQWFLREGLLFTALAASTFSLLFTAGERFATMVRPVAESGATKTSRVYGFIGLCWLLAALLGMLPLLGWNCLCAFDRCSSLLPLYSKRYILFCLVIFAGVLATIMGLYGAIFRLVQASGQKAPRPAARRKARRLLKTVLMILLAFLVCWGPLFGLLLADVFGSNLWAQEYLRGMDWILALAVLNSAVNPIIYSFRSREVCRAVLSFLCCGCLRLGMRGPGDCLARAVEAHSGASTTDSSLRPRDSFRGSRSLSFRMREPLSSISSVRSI
The experiment in a line: S1P4 receptor agonists, human, late-stage follow-up, cell-based, fluorescence, synthesized compounds (AID 463107). Format: functional.

For the next assay, the target named is Ion channel NompC (Danio rerio, UniProt Q7T1G6). Description: Dose response cell-based high-throughput screening assay for agonists of the transient receptor potential channel N1 (TRPN1). [Related pubchem assays (depositor defined):AID1424, AID1448]. Type of assay: functional.
Chain of Ion channel NompC (Q7T1G6 whole entry): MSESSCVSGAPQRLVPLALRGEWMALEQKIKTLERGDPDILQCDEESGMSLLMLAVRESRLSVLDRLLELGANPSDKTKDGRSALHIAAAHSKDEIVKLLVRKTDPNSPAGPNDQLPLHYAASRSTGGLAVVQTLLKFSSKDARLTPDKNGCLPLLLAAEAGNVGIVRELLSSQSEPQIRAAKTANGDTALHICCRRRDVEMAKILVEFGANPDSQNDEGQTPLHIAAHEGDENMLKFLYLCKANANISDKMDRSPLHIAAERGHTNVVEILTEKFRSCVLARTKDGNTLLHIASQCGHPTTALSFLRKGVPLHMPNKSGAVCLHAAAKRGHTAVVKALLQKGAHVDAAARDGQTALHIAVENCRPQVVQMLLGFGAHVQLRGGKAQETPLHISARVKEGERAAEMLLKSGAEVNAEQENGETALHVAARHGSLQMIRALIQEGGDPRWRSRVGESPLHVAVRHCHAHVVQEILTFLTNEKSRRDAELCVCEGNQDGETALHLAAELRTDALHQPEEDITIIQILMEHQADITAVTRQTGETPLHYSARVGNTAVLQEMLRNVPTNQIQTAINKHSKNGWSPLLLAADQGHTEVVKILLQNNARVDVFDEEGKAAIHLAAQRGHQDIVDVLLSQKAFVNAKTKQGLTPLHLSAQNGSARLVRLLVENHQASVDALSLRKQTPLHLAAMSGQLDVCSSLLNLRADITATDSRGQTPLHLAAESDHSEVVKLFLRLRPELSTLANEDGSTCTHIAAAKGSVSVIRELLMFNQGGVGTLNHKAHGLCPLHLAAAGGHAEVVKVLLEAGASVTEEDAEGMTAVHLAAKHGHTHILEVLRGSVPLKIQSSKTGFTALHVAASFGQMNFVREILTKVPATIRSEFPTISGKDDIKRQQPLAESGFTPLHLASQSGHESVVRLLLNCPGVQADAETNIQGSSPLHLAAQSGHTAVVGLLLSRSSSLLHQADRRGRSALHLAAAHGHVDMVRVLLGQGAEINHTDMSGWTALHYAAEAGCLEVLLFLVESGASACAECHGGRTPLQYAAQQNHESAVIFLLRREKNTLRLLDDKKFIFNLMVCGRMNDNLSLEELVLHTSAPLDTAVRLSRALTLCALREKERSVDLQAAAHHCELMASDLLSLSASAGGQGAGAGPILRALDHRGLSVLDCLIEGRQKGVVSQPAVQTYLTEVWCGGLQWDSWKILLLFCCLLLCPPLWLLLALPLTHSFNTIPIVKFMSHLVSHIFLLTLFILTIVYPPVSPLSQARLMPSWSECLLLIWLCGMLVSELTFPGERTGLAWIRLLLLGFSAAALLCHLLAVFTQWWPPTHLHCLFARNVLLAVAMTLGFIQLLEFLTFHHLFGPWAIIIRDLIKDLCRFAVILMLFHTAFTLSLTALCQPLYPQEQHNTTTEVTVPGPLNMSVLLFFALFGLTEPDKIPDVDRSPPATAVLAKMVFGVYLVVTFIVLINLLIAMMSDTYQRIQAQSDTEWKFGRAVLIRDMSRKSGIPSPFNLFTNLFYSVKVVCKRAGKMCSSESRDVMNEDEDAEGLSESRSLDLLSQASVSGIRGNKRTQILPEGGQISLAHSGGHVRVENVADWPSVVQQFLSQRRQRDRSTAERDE
The target of a further assay is Mucolipin-3 (Homo sapiens, UniProt Q8TDD5). Description: Fluorescence counterscreen assay for […] agonists: dose response cell-based high-throughput screening assay to identify agonists of the transient receptor potential channel ML3 (TRPML3). [Related pubchem assays: 1424, 1448 ]. Format: functional. (In general: A counterscreen serves to expose hits that act by an unwanted route or on another target.)
Chain of Mucolipin-3 (Q8TDD5 whole entry): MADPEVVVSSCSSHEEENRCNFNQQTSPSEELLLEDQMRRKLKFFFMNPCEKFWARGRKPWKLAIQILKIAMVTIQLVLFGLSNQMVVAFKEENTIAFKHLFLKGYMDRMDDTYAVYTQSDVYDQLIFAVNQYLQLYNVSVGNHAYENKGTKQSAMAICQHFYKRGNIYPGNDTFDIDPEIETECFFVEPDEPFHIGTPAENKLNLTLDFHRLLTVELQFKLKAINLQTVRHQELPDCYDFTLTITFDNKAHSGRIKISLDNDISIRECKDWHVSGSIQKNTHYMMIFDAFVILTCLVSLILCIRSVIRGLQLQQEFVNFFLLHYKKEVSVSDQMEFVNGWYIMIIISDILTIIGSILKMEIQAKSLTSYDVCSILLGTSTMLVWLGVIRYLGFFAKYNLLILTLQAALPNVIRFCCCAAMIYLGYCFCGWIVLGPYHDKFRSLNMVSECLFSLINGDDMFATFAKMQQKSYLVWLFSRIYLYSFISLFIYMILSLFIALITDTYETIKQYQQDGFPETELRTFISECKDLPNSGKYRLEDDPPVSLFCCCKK

For assay [11], the target named is Photoreceptor-specific nuclear receptor (Homo sapiens, UniProt Q9Y5X4). Type of assay: functional, cell-based.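 Further: CHO-S cells with Gal4-NCOR and VP16-NR2E3 two-hybrid luciferase reporter.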
Chain of Photoreceptor-specific nuclear receptor (Q9Y5X4 whole entry, the tested form may be a part): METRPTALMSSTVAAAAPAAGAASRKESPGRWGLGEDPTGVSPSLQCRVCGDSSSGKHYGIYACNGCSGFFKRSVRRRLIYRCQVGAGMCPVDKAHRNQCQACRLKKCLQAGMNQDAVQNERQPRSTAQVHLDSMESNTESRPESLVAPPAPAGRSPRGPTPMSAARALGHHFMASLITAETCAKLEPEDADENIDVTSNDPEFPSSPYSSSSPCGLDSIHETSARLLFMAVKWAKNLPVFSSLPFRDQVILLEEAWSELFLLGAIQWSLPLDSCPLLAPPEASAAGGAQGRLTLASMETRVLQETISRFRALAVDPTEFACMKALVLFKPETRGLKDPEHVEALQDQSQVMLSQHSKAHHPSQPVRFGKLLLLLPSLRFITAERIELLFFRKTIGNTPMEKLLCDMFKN

Each structure is given as a SMILES string. Active and inactive are the calls of the source.

For 8 molecules, EC50 and IC50 results are on record in ChEMBL document CHEMBL1201862, “PubChem BioAssay data set” (2004).

One may read the EC50 as the midpoint of the concentration-response curve. In general, IC50 refers to the point on the concentration scale where inhibition reaches its midpoint.

Chain of Hexokinase (Q38C41 whole entry): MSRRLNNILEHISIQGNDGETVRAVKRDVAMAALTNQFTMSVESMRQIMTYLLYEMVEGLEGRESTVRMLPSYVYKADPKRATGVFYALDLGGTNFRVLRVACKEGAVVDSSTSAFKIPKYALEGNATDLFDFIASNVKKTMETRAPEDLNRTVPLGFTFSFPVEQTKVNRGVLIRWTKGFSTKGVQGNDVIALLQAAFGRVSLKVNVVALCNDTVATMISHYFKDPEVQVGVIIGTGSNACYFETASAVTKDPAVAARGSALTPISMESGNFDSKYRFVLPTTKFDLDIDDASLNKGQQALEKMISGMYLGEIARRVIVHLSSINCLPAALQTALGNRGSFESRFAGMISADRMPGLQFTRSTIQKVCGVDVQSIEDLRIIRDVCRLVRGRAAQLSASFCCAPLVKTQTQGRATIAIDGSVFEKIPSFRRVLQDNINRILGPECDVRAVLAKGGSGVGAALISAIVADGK

Turning to `O=C(NCCN1CCN(c2ccccc2)CC1)c1cccc(Br)c1`, the EC50 in the assay on T-cell was 7.17 µM (active).

As to `CCCc1cc(C(=O)Nc2sc3c(c2C(=O)OCC)CCCC3)no1`, the EC50 in assay [1] is > 100 µM (inactive).

Take `COC(=O)c1n[nH]c(NC(=O)c2ccccc2Cl)n1`: the concentration for half-maximal inhibition (IC50) on Coagulation factor XII is 1.05 µM (active).

For `CCCCc1cc(O)c(CCCC)c(O)c1`, the EC50 is 8.86 µM (active) in assay [2]; 9.78 µM (active) in assay [3]; 1.88 µM (active) in assay [4]; 0.473 µM (active) in [5]; 9.33 µM (active) in assay [6]. Moreover, the IC50 in [7] is 6.03 µM (active).

For `O=C(Nc1cc(Cl)ccc1C(=O)O)c1ccc(C(F)(F)F)cc1`, the IC50 at Hexokinase is > 25 µM (inactive).

Regarding `S=C(Nc1ccccc1)N1CCN(Cc2ccc3c(c2)OCO3)CC1`, the IC50 in [8] and in [9] was > 100 µM (inactive) each time.

As to `COCc1ccc(OCCOc2ccc(Cl)cc2Cl)c(Cl)n1`, in assay [10], the EC50 was 12 µM (inactive).

Regarding `N#C/C(=N\Nc1ccc(Cl)c(Cl)c1)C(=O)C1CC1`, the EC50 on Ion channel NompC is > 9.97 µM (inactive); on Mucolipin-3 it was > 29.9 µM (not active). In addition, the half-maximal inhibitory concentration (IC50) in assay [11] was 1.29 µM (active).
